Target: T1, Os9BGlu31 (Oryza sativa, UniProt B7F7K7)
T1 construct: gene BGLU31; recombinant from E. coli, IMAC purified
T1 sequence (B7F7K7 23-523): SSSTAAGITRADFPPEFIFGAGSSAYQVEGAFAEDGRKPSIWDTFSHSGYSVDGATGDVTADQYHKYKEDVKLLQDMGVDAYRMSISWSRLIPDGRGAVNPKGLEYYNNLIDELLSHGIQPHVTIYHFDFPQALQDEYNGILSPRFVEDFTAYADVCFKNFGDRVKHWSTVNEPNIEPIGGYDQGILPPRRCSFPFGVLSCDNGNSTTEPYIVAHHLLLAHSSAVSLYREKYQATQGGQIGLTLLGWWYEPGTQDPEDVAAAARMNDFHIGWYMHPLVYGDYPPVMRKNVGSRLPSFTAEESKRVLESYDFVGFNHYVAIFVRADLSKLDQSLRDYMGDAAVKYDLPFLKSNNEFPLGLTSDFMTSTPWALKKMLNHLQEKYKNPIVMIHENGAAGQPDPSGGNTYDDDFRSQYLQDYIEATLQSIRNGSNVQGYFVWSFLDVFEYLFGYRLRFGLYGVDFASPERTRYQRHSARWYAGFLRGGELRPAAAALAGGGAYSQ
Assay: preparative transglucosylation, product by NMR and UHPLC
Type: biochemical
Conditions: glucose acceptor; 10 mM ABA, 10 mM pNPGlc as donor, citrate buffer pH 4.5, 37 °C overnight

Compound: CC1=CC(=O)CC(C)(C)[C@@]1(O)/C=C/C(C)=C\C(=O)O [ABA]
- preparative transglucosylation, product by NMR and UHPLC: used to transfer glucose from pNPGlc to ABA to generate ABA-GE

Source: publication PMC8303963, “Action of Multiple Rice β-Glucosidases on Abscisic Acid Glucose Ester” (International Journal of Molecular Sciences, 2021)
